Assays:
[1] = biological target: T1, rat ETB receptors (Rattus norvegicus, UniProt P21451); experiment: [125I]ET-3 binding, membranes from rat cerebellum
T1 construct: from tissue
T1 sequence (P21451 27-442): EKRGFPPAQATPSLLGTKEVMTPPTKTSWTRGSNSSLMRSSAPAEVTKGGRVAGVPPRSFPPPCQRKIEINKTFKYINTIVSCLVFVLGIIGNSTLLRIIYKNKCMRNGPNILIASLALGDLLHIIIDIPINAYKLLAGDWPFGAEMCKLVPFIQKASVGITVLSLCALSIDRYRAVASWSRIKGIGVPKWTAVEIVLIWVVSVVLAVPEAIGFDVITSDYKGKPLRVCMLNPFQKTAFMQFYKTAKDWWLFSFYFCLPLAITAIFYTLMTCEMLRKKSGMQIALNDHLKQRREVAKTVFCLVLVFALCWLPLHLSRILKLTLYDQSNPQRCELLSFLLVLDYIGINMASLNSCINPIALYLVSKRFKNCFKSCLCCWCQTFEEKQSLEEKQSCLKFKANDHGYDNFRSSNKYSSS
Text: Relative binding activities are given below in TABLE 3.

[2] = Plasma CI-1034 concentrations in anesthetized dogs; format: in vivo, dog; details: for concentration at 5 min: plasma, intravenous
Protocol: Each animal received each treatment and served as its own control, with 7 days between treatments. […] Pulmonary function parameters were evaluated for 60 minutes after each dose, and included minute volume, respiratory rate, resistance, compliance, peak inspiratory and expiratory volumes, and tidal volume. Indirect blood pressure measurements were made periodically throughout the pulmonary data collection period since endothelin receptor antagonists are known to induce hypotension.
Plasma concentration in this dog 5 minutes postdose was 1960 μg/mL.

[3] = PO bioavailability in monkeys; details: monkey, in vivo
[4] = Plasma CI-1034 concentrations in anesthetized dogs; format: in vivo; details: intravenous, dog; for concentration at 15 min: 15 minutes postdose; for concentration at 30 min: 30 minutes postdose; for concentration at 60 min: 60 minutes postdose
[5] = biological target: T2, human ETA receptors (Homo sapiens, UniProt P25101); experiment: Saturation binding of [125I]ET-1, Scatchard analysis (Ltk- cell membranes)
T2 construct: expressed in transfected cells; host or cells: Ltk- cells (mouse fibroblast, thymidine kinase deficient)
T2 sequence (P25101 21-427): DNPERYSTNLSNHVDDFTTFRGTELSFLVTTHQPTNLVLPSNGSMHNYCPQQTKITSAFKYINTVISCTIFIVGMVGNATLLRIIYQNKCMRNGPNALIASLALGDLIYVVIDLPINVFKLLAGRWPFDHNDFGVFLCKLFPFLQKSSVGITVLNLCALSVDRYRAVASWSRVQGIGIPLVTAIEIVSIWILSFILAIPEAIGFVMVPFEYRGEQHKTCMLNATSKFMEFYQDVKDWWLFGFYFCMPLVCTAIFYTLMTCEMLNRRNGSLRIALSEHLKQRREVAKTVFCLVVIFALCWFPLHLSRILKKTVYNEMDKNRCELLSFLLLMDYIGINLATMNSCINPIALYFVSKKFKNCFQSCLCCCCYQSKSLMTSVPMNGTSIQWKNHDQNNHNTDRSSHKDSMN

[6] = Dissociation constant by potentiometric titration in water; format: physicochemical; details: carboxylic acid group, read-out: apparent pKa
[7] = CI-1034 plasma concentration after oral dose in rats; format: in vivo; details: rat, 24 hours after 30 mg/kg oral dose
Text: Vehicle-treated rats responded to the bET-1 challenge with peak increases in mean arterial pressure (MAP) of 58±2 mm Hg (N=7); baseline MAP was 82±5 mm Hg.

[8] = system: acute hypoxia-induced pulmonary hypertension; experiment: Pulmonary hypertension in response to acute hypoxia in rats; format: in vivo, rat
Protocol: Exposure to hypoxia produces an acute pulmonary hypertensive response in the rat. […] The hypothesis has since been tested through blockade of the hypertensive response with several ET antagonists. The antihypertensive dose of CI-1034 was determined in response to acute hypoxia.
Heparinized plasma samples were collected 10 minutes after the final MPAP measurement was made.

[9] = Food effect (high-fat meal) single-dose study in healthy subjects; format: in vivo, human; details: for Tmax: human, plasma, oral, 150 mg
[10] = biological target: T3, ETA receptor (Oryctolagus cuniculus, UniProt A5A8K3); experiment: ET-1 induced contraction in isolated rabbit femoral artery
T3 sequence (A5A8K3 21-427): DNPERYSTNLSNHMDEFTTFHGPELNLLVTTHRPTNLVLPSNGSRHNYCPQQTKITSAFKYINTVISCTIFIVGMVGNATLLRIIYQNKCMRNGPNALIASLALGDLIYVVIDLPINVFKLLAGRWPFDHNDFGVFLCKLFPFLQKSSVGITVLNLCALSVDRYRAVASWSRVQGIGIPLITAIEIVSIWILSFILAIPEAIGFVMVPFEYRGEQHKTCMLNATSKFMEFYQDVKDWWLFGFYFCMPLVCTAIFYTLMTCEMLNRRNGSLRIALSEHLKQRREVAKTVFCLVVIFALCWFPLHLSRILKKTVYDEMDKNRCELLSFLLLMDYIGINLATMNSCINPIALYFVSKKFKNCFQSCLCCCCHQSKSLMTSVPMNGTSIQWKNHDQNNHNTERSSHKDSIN
Protocol: In rabbit femoral artery vasculature, the receptor responsible for mediating the contractile activity of ET-1 appears to be predominantly the ETA receptor subtype, whereas in the rabbit pulmonary artery the contractile activity of ET-1 appears to be mediated by both ETA and ETB receptors.
In rabbit femoral and pulmonary arteries, ET-1 produced concentration-dependent increases in contractile tension starting at 1 nM.

Which IC50 [1] does the source give for `CCc1cc(C2=C(C(=O)[O-])N(c3ccccc3C(F)(F)F)S(=O)(=O)c3ccccc32)cc2c1OCO2.[K+]` [CI-1034, 4-(7-Ethyl-1,3-benzodioxol-5-yl)-2-[2-(trifluoromethyl)phenyl]-2H-1 ,2-benzothiazine-3-carboxylic acid 1,1-dioxide monopotassium salt] here?
The IC50 was 230 nM.

What about the “plasma concentration versus dose” value ([2]; anesthetized dogs) of the same compound?
Its value is “increased proportionally with dose”.

And the “Plasma Concentration” value ([2]; dog, 180 mg/kg, 5 minutes postdose, N = 1)?
The value was 1960 µg/mL.

And the “exposure relative to projected human therapeutic Cmax of […]” value ([2]; dogs, 30 and 60 mg/kg, plasma 5 minutes postdose)?
Its value is “at least 940 times”.

What about the concentration at 5 min ([2]; dog, 30 mg/kg, 5 minutes postdose) of the same compound?
Its concentration at 5 min is 301 µg/mL.

What about the concentration at 5 min ([2]; dog, 60 mg/kg, 5 minutes postdose) of the same compound?
The concentration at 5 min was 574 µg/mL.

And the bioavailability [3]?
Its bioavailability is roughly 10%.

And the concentration at 15 min ([4]; 30 mg/kg)?
The concentration at 15 min was 221 µg/mL.

What about the concentration at 30 min ([4]; 30 mg/kg) of the same compound?
The concentration at 30 min was 209 µg/mL.

What about the concentration at 60 min ([4]; 30 mg/kg) of the same compound?
The concentration at 60 min was 157 µg/mL.

What about the concentration at 5 min ([4]; 40 mg/kg, 5 minutes postdose, N = 1) of the same compound?
The concentration at 5 min was 395 µg/mL.

What about the concentration at 15 min ([4]; 40 mg/kg, N = 1) of the same compound?
Its concentration at 15 min is 327 µg/mL.

What about the concentration at 30 min ([4]; 40 mg/kg, N = 1) of the same compound?
Its concentration at 30 min is 267 µg/mL.

And the concentration at 60 min ([4]; 40 mg/kg, N = 1)?
The concentration at 60 min was 230 µg/mL.

And the concentration at 15 min ([4]; 60 mg/kg)?
Its concentration at 15 min is 427 µg/mL.

And the concentration at 30 min ([4]; 60 mg/kg)?
The concentration at 30 min was 367 µg/mL.

And the concentration at 60 min ([4]; 60 mg/kg)?
The concentration at 60 min was 337 µg/mL.

And the Ki ([5]; Scatchard analysis, read-out: Ki (inhibitor constant of unlabeled antagonist))?
Its Ki is 0.51 nM.

What about the “effect on Bmax (maximal [125I]ET-1 binding)” value ([5]; saturation binding) of the same compound?
Its value is “without significantly affecting”.

And the “effect on apparent Kd of [125I]ET-1 binding” value ([5]; saturation binding)?
Its value is “reduced”.

What about the pKa [6] of the same compound?
Its pKa is 3.9.

And the concentration at 24 h [7]?
The concentration at 24 h was 0.16 ± 0.01 µg/mL.

What about the ED50 ([8]; Rattus norvegicus, rats, PO, relative to hypoxic control, read-out: ED50, inhibition of acute pulmonary hypertensive response) of the same compound?
The ED50 was 0.8 mg/kg.

What about the EC50 ([8]; Rattus norvegicus, simple Emax model, acute hypoxia, read-out: plasma concentration predicted to produce half-maximal effect) of the same compound?
The EC50 was 0.03 ± 0.03 µg/mL.

What about the “reduction of peak pulmonary hypertensive response at 4 hours” value ([8]; rats, 0.3 mg/kg PO 30 minutes before hypoxia (10% O2)) of the same compound?
The value was 34%±1%.

What about the “reduction of peak pulmonary hypertensive response at 4 hours” value ([8]; rats, 3.0 mg/kg PO 30 minutes before hypoxia (10% O2)) of the same compound?
The value was 70%±3%.

What about the “predicted maximal antihypertensive effect” value ([8]; simple Emax model, acute hypoxia) of the same compound?
Its value is 81%±23%.

What about the Tmax ([9]; fasted state) of the same compound?
The Tmax was 1.26 h.

What about the Tmax ([9]; with high-fat meal) of the same compound?
Its Tmax is 3.5 h.

What about the “mean AUC(0-∞) lower with high-fat breakfast versus fasted” value ([9]; single dose) of the same compound?
The value was “approximately 16%”.

What about the “mean Cmax lower with high-fat breakfast versus fasted” value ([9]; single dose) of the same compound?
Its value is “approximately 50%”.

And the “potency at blocking ETA versus ETB receptor signaling” value ([10]; isolated rabbit vasculature, femoral versus pulmonary artery KB)?
Its value is 389 fold.

What about the “effect on ET-1 induced maximal contraction” value ([10]; rabbit femoral artery) of the same compound?
The value was “not affected”.

What about the Schild regression slope ([10]; rabbit femoral artery, r=0.99) of the same compound?
Its Schild regression slope is 0.88.

Reference: patent US20020115661A1, “Method for treating chronic obstructive pulmonary disease” (priority 2000, published 2002)
